Measurements: patent US20110092600A1, “PHARMACEUTICAL COMPOSITIONS COMPRISING AMINOCYCLOHEXANE DERIVATIVES” (MERZ PHARMA GMBH & KGAA, priority 2008, published 2011)

Experiments:
[1] = Isothermal titration calorimetry (ITC) of complexation with HPBCD; type: physicochemical
Method: (§1) Complexes between neramexane mesylate and either hydroxypropyl-beta-cyclodextrin (HPBCD; grade: Kleptose™ HPB) or hydroxypropyl-gamma-cyclodextrin (HPGCD; grade: Cavasol™ W8 HP Pharma) are formed and investigated by isothermal titration calorimetry (ITC). The experiments are performed on a Microcal MCS-ITC instrument. The procedure consists of iteratively adding small portions of a test solution (here: a neramexane mesylate solution) through a motorised microlitre syringe to a receptor solution (here: a cyclodextrin solution) located in the calorimeter. Upon complexation, an exothermic or endothermic signal is produced which represents the sum of all thermal events including complexation itself, but also heats of dilution or (de)protonation. The titration curves are evaluated with the Microcal Origin software V2.9 with its original data evaluation module for titration calorimetric evaluations.
(§2) The experiments are carried out using aqueous phosphate buffer of pH 6 as a solvent. Solutions of neramexane mesylate, HPBCD, and HPGCD of various concentrations are prepared, and a number of titrations are conducted using different maximal molar ratios of neramexane to cyclodextrin (after complete addition of the drug substance), ranging from 1.25 to 5. Titrations with solvent solutions alone and in combination with cyclodextrin solution are performed to obtain curves indicating the heats of dilution, which may be used as baseline data for the correction of the complexation curves.

[2] = Isothermal titration calorimetry (ITC) of complexation with HPGCD; type: physicochemical
Method: as §1, §2

[3] = final molar ratio 1.25, aqueous phosphate buffer pH 6
[4] = final molar ratio of neramexane to cyclodextrin 5, aqueous phosphate buffer pH 6
[5] = final molar ratio 1.8, aqueous phosphate buffer pH 6

SMILES: CC1(C)CC(C)(C)CC(C)(N)C1 [neramexane, 1-amino-1,3,3,5,5-pentamethylcyclohexane]
- thermal nature of complexation ([1]; aqueous phosphate buffer pH 6): exothermic
- equilibrium constant [1, 3]: 413 M⁻¹
- stoichiometry of binding (of neramexane per cyclodextrin molecule) [1, 3]: 0.4
- equilibrium constant [1, 4]: 788 M⁻¹
- stoichiometry of binding (of neramexane per cyclodextrin molecule) [1, 4]: 0.84
- thermal nature of complexation ([2]; aqueous phosphate buffer pH 6): endothermic
- equilibrium constant [2, 5]: 112 M⁻¹
- stoichiometry of binding [2, 5]: 0.93
